This passage reports IC50 results from patent US11407736B2 (priority 2019, dated 2022).

The structures appear in SMILES notation. Like-named read-outs stand apart in the source and are kept apart here.

In one assay the test system is L929 cells. As to the kind of experiment: L929 cell necroptosis assay (TNFa + zVAD, CellTiter-Glo). It is filed as cell-based, murine. The note with it: Mus musculus. The method, boiled down:
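Necroptosis was read as CellTiter-Glo luminescence 18 hours after TNFa stimulation at 37° C, 5% CO2. Prior to that, L929 cells (10K/well, plated 18 h) received fresh medium with 40 uM zVAD-fmk plus 4-fold serially diluted compound.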
(Cellular ATP, detected with luciferase, serves as a proxy for viable cell number.)

The target in the next assay is RIPK1 (Homo sapiens (Human), UniProt Q13546). Description: RIPK1 ADP-Glo biochemical kinase assay. On the procedure: The final reaction volume was 5.0ul.
Adding 5 μl of ADP-Glo™ terminated the reaction.

The next assay relates to U937 cells. As to the kind of experiment: U937 cell necroptosis assay (TNFa + zVAD, CellTiter-Glo). Type of assay: cell-based, human. The note with it: Homo sapiens. The procedure, abridged:
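Necroptosis was induced with TNFa at 2 ng/mL final for 18 h at 37 °C, following 1 h compound pre-incubation in the presence of zVAD-fmk (60 uM for U937 plating medium, 40 uM for L929 medium). Luminescent CellTiter-Glo signal gave relative cell survival.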

The mark [1] stands for this setting: L929, read-out: L929-CTG-recovery, L929, TNFa + zVAD (IC50), L929 cells, TNFa + zVAD.
Where [2] appears, read: read-out: RIPK1 ADP-Glo Kinase (IC50).
Where [3] appears, read: U-937, read-out: U937 Zvad TNF CTG Recovery, U937, TNFa + zVAD (IC50), U937 cells, TNFa + zVAD.
[4] abbreviates: L929, L929 cells, TNFa + zVAD, read-out: L929-CTG-recovery, L929, TNFa + zVAD (IC50).
Setting [5] is: U-937, U937 cells, TNFa + zVAD, read-out: U937 Zvad TNF CTG Recovery, U937, TNFa + zVAD (IC50).

Sequence of RIPK1 (Q13546 whole entry, species assumed): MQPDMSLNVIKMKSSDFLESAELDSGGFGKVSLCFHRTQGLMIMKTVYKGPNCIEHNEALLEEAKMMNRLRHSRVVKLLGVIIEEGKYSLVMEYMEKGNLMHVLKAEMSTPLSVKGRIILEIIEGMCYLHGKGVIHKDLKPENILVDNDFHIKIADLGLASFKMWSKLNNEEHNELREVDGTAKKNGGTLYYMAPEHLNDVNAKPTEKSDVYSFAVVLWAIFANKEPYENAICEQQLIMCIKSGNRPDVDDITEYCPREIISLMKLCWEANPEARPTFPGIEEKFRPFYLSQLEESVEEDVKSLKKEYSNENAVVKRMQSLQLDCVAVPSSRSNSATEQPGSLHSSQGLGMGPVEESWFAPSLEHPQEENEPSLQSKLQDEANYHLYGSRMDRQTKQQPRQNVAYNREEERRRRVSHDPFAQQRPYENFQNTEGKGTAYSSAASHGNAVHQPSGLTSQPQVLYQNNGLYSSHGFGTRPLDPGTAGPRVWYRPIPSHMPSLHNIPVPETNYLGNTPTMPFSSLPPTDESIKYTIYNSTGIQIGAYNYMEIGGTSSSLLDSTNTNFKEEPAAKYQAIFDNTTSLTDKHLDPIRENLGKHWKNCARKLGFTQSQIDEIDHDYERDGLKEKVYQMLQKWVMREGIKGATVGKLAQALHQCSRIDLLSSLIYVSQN

With `CN1C(=O)[C@@H](NC(=O)c2nnc(Cc3ccccc3)o2)COc2ccc(N3CC4(CCOCC4)C3)cc21` [Compound I-236, (S)-5-benzyl-N-(5-methyl-4-oxo-7-(7-oxa-2-azaspiro[3.5]nonan-2-yl)-2,3,4,5-tetrahydrobenzo[b][1,4]oxazepin-3-yl)-1,3,4-oxadiazole-2-carboxamide], the IC50 (usually the midpoint of a concentration-inhibition curve) in the assay with L929 cells (setting [1]) was 258 nM; at RIPK1 (setting [2]), 55.9 nM; in the assay with U937 cells (setting [3]) it was 6.6 nM.
In the case of `CN1C(=O)[C@@H](NC(=O)c2cc(Oc3cccc(F)c3)ccn2)COc2ccc(C#CC3(O)COC3)cc21` [Compound I-115, (S)-4-(3-fluorophenoxy)-N-(7-((3-hydroxyoxetan-3-yl)ethynyl)-5-methyl-4-oxo-2,3,4,5-tetrahydrobenzo[b][1,4]oxazepin-3-yl)picolinamide], the concentration for half-maximal inhibition (IC50) in the assay with L929 cells (setting [4]) came out at 49.1 nM; at RIPK1 (setting [2]), 24 nM; in the assay on U937 cells (setting [5]) it was 0.8 nM.
For `CN1C(=O)[C@@H](NC(=O)c2ncn(Cc3ccc(-c4ccccc4)cc3)n2)COc2ccc(C#CC(C)(C)O)cc21` [Compound I-83, (S)-1-([1,1′-biphenyl]-4-ylmethyl)-N-(7-(3-hydroxy-3-methylbut-1-yn-1-yl)-5-methyl-4-oxo-2,3,4,5-tetrahydrobenzo[b][1,4]oxazepin-3-yl)-1H-1,2,4-triazole-3-carboxamide], the IC50 with L929 cells (setting [4]) came to 0.1 nM; at RIPK1 (setting [2]) it was 66.4 nM; in the assay with U937 cells (setting [5]), 1 nM.
As to `CN1C(=O)[C@@H](NC(=O)c2cc(Oc3ccccc3)ccn2)COc2ccc(C#CC(C)(C)N3CCCC3)cc21` [Compound I-210, (S)—N-(5-Methyl-7-(3-methyl-3-(pyrrolidin-1-yl)but-1-yn-1-yl)-4-oxo-2,3,4,5-tetrahydrobenzo[b][1,4]oxazepin-3-yl)-4-phenoxypicolinamide], the IC50 was 470 nM with L929 cells (setting [4]), 28.6 nM at RIPK1 (setting [2]) and 4.2 nM in the assay with U937 cells (setting [5]).
As for `CN1C(=O)[C@@H](NC(=O)c2cc(Oc3ccc(F)cc3)ccn2)COc2ccc(C#CC(C)(C)CO)cc21` [Compound I-148, (S)-4-(4-fluorophenoxy)-N-(7-(4-hydroxy-3,3-dimethylbut-1-yn-1-yl)-5-methyl-4-oxo-2,3,4,5-tetrahydrobenzo[b][1,4]oxazepin-3-yl)picolinamide], the IC50 in the assay on L929 cells (setting [4]) stood at 359 nM; at RIPK1 (setting [2]) it was 33.7 nM; in the assay with U937 cells (setting [5]), 5.2 nM.
The matching figures for `CN1C(=O)[C@@H](NC(=O)c2ncn(Cc3ccccc3)n2)COc2ccc(C#CC3(O)CCOCC3)cc21` [Compound I-54, (S)-1-benzyl-N-(7-((4-hydroxytetrahydro-2H-pyran-4-yl)ethynyl)-5-methyl-4-oxo-2,3,4,5-tetrahydrobenzo[b][1,4]oxazepin-3-yl)-1H-1,2,4-triazole-3-carboxamide]: 0.3 nM, 26.9 nM and 0.9 nM.
In the case of `CN1C(=O)[C@@H](NC(=O)c2ncn(Cc3ccccc3)n2)COc2ccc(C#CC3(O)CCCC3)cc21` [Compound I-52, (S)-1-benzyl-N-(7-((1-hydroxycyclopentyl)ethynyl)-5-methyl-4-oxo-2,3,4,5-tetrahydrobenzo[b][1,4]oxazepin-3-yl)-1H-1,2,4-triazole-3-carboxamide], the IC50 with L929 cells (setting [4]) is 0.3 nM; on RIPK1 (setting [2]), 24.9 nM; in the assay on U937 cells (setting [5]), 0.9 nM.
For `CN1C(=O)[C@@H](NC(=O)c2cc(Oc3ccccc3)ccn2)COc2ccc(C#CC(C)(C)CN3CCOCC3)cc21` [Compound I-140, (S)—N-(7-(3,3-dimethyl-4-morpholinobut-1-yn-1-yl)-5-methyl-4-oxo-2,3,4,5-tetrahydrobenzo[b][1,4]oxazepin-3-yl)-4-phenoxypicolinamide], the IC50 is 109 nM in the assay with L929 cells (setting [4]), 124 nM at RIPK1 (setting [2]) and 4.6 nM in the assay on U937 cells (setting [5]).
For `C=C(C)C#Cc1ccc2c(c1)N(C)C(=O)[C@@H](NC(=O)c1cc(Oc3ccccc3)ccn1)CO2` [Compound I-99, (S)—N-(5-methyl-7-(3-methylbut-3-en-1-yn-1-yl)-4-oxo-2,3,4,5-tetrahydrobenzo[b][1,4]oxazepin-3-yl)-4-phenoxypicolinamide], the figures for the IC50 in the assay on L929 cells (setting [4]), at RIPK1 and with U937 cells (setting [5]) were 116 nM, 126 nM and 1.3 nM, respectively.
Regarding `CN1CC(F)(C#Cc2ccc3c(c2)N(C)C(=O)[C@@H](NC(=O)c2cc(Oc4ccccc4)ccn2)CO3)C1` [Compound I-146], the IC50 in the assay on L929 cells (setting [1]) worked out at 18.3 nM; on RIPK1 (setting [2]) it was 17.3 nM; in the assay with U937 cells (setting [3]), 0.4 nM.
With `CN1C(=O)[C@@H](NC(=O)c2n[nH]c(Cc3ccccc3F)n2)COc2ccc(C#CC(C)(C)C)cc21` [Compound I-89, (S)—N-(7-(3,3-dimethylbut-1-yn-1-yl)-5-methyl-4-oxo-2,3,4,5-tetrahydrobenzo[b][1,4]oxazepin-3-yl)-5-(2-fluorobenzyl)-1H-1,2,4-triazole-3-carboxamide], the values for the IC50 in the assay on L929 cells (setting [4]), on RIPK1 (setting [2]) and with U937 cells (setting [5]) were 0.7 nM, 52.7 nM and 4.5 nM, respectively.
The matching figures for `CN1C(=O)[C@@H](NC(=O)c2n[nH]c(Cc3ccccc3)n2)COc2ccc(CCCCO)cc21` [Compound I-15, (S)-5-benzyl-N-(7-(4-hydroxybutyl)-5-methyl-4-oxo-2,3,4,5-tetrahydrobenzo[b][1,4]oxazepin-3-yl)-1H-1,2,4-triazole-3-carboxamide]: 2200 nM, 136 nM and 4.8 nM.
In the case of `Cc1cc(Oc2ccccc2)cc(C(=O)N[C@H]2COc3ccc(C#CC(C)(C)O)cc3N(C)C2=O)n1` [Compound I-119, (S)—N-(7-(3-hydroxy-3-methylbut-1-yn-1-yl)-5-methyl-4-oxo-2,3,4,5-tetrahydrobenzo[b][1,4]oxazepin-3-yl)-6-methyl-4-phenoxypicolinamide], the figures for the IC50 with L929 cells (setting [4]), at RIPK1 (setting [2]) and in the assay on U937 cells (setting [5]) were 4050 nM, 59.8 nM and 14.6 nM, respectively.
For the compound `C=C(C#Cc1ccc2c(c1)N(C)C(=O)[C@@H](NC(=O)c1cc(Oc3ccc(F)cc3)ccn1)CO2)CCNC` [Compound I-138, (S)-4-(4-fluorophenoxy)-N-(5-methyl-7-(5-(methylamino)-3-methylenepent-1-yn-1-yl)-4-oxo-2,3,4,5-tetrahydrobenzo[b][1,4]oxazepin-3-yl)picolinamide], the IC50 in the assay on L929 cells (setting [4]) is 3150 nM; on RIPK1 (setting [2]) it was 76.9 nM; in the assay with U937 cells (setting [5]), 122 nM.
As for `CN1C(=O)[C@@H](NC(=O)c2cc(Oc3ccccc3)ccn2)COc2ccc(C#CC3(O)CCOCC3)cc21` [Compound I-123, (S)—N-(7-((4-hydroxytetrahydro-2H-pyran-4-yl)ethynyl)-5-methyl-4-oxo-2,3,4,5-tetrahydrobenzo[b][1,4]oxazepin-3-yl)-4-phenoxypicolinamide], the IC50 stood at 53.5 nM in the assay on L929 cells (setting [4]), 35.7 nM at RIPK1 (setting [2]) and 0.6 nM with U937 cells (setting [5]).
The corresponding values for `CN1C(=O)[C@@H](NC(=O)c2n[nH]c(Cc3c(Cl)cccc3Cl)n2)COc2ccc(C#CC(C)(C)O)cc21` [Compound I-65, (S)-5-(2,6-dichlorobenzyl)-N-(7-(3-hydroxy-3-methylbut-1-yn-1-yl)-5-methyl-4-oxo-2,3,4,5-tetrahydrobenzo[b][1,4]oxazepin-3-yl)-1H-1,2,4-triazole-3-carboxamide] are 41.5 nM, 63.9 nM and 42 nM.
As for `CN1C(=O)[C@@H](NC(=O)c2cc(Oc3ccccc3)ccn2)COc2ccc(CN3CCC4(CCOCC4)CC3)cc21` [Compound I-149, (S)—N-(7-((3-oxa-9-azaspiro[5.5]undecan-9-yl)methyl)-5-methyl-4-oxo-2,3,4,5-tetrahydrobenzo[b][1,4]oxazepin-3-yl)-4-phenoxypicolinamide], the IC50 in the assay with L929 cells (setting [4]) worked out at 11600 nM; against RIPK1 it was 39.6 nM; in the assay on U937 cells (setting [5]) it was 30 nM.
Turning to `CN1C(=O)[C@@H](NC(=O)c2n[nH]c(Cc3ccccc3)n2)COc2ccc(C#CCN3CCCC3)cc21` [Compound I-95, (S)-5-benzyl-N-(5-methyl-4-oxo-7-(3-(pyrrolidin-1-yl)prop-1-yn-1-yl)-2,3,4,5-tetrahydrobenzo[b][1,4]oxazepin-3-yl)-1H-1,2,4-triazole-3-carboxamide], the IC50 in the assay with L929 cells (setting [4]) was 0.5 nM; at RIPK1 (setting [2]), 27.1 nM; with U937 cells (setting [5]), 1.4 nM.
As to `CN1C(=O)[C@@H](NC(=O)c2n[nH]c(Cc3ccccc3)n2)COc2ccc(CCC(=O)Nc3ccc4cccnc4c3)cc21` [Compound I-12, (S)-5-benzyl-N-(5-methyl-4-oxo-7-(3-oxo-3-(quinolin-7-ylamino)propyl)-2,3,4,5-tetrahydrobenzo[b][1,4]oxazepin-3-yl)-1H-1,2,4-triazole-3-carboxamide], the IC50 in the assay with L929 cells (setting [1]) was 42000 nM; at RIPK1 (setting [2]), 52 nM; with U937 cells (setting [5]), 5.3 nM.
Regarding `CN1C(=O)[C@@H](NC(=O)c2ncn(Cc3c(Cl)cccc3Cl)n2)COc2ccc(CCC(=O)NC3CC3)cc21` [Compound I-19, (S)—N-(7-(3-(cyclopropylamino)-3-oxopropyl)-5-methyl-4-oxo-2,3,4,5-tetrahydrobenzo[b][1,4]oxazepin-3-yl)-1-(2,6-dichlorobenzyl)-1H-1,2,4-triazole-3-carboxamide], the results for the IC50 in the assay with L929 cells (setting [4]), at RIPK1 (setting [2]) and in the assay with U937 cells (setting [5]) were 1300 nM, 146 nM and 2.7 nM, respectively.
